ChEMBL document CHEMBL3102745, “Inhibition of CK2: An Attractive Therapeutic Target for Cancer Treatment” (ACS Med Chem Lett, 2013)

Legend:
[1] = molecular target: Casein kinase II subunit alpha (Homo sapiens) (UniProt P68400); experiment: Inhibition of N-terminal 6 X His-tagged recombinant human full length Casein Kinase 2 alpha subunit expressed in Sf21 insect cells using BODIPY-FL-RRRDDDSDDD-CONH2 as substrate preincubated for 20 mins measured after 90 mins by fluorescence-based assay
HCT-116 = experiment: Antiproliferative activity against human HCT116 cells after 72 hrs by Alamar blue assay; assay type: functional; settings: HCT-116, 72 h

Casein kinase II subunit alpha (Homo sapiens), sequence (P68400 whole entry, looked up): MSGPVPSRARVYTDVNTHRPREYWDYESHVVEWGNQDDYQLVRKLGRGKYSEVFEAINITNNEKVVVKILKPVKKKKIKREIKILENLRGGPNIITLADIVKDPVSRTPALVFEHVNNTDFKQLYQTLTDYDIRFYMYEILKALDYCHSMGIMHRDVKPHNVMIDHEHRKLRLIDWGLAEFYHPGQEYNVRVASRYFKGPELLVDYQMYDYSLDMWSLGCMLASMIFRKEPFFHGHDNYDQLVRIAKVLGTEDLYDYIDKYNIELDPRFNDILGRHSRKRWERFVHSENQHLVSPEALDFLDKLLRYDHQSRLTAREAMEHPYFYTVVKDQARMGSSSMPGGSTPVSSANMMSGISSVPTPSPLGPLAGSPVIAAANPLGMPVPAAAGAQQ

| IC50 [1] | GI50 (HCT-116) | Compound |
| --- | --- | --- |
| < 4000 nM | 30 nM | CC(=O)Nc1cc(Nc2cc(NC3CC3)n3ncc(C#N)c3n2)ccc1N(C)CCN(C)C |
|  | 9 nM | CC(=O)Nc1cc(Nc2cc(NC3CC3)n3ncc(C#N)c3n2)ccc1N(C)CCN |
